{
  "source": "BindingDB's records for doi:10.7270/Q20V8B7J",
  "about": "(Nmmlsc, 2009)",
  "data": [
    {"biological_target": "Ras-related C3 botulinum toxin substrate 1 (Mus musculus, UniProt P63001)", "experiment": "activated mutant Rac1 GTP binding inhibitors, SAR follow-up, biochemical, additional analogs, multiplex bead flow cytometry (AID 2039)", "units": {"Ki": "µM"}, "values": [
      {"smiles": "O=C1Nc2c(Br)cccc2C1=C1Nc2ccccc2C1=O", "Ki": 2.51},
      {"smiles": "O=C1NC(=O)/C(=C2/C(=O)Nc3ccccc32)N1", "Ki": 1.06},
      {"smiles": "O=C1Nc2ccc(Br)cc2C1=C1Nc2ccccc2C1=O", "Ki": 1.11},
      {"smiles": "O=C1N=c2ccc(Br)cc2=C1c1[nH]c2ccccc2c1NO", "note": "[5-bromanyl-3-[3-(oxidanylamino)-1H-indol-2-yl]indol-2-one]", "Ki": 2.98},
      {"smiles": "O=C1N=c2c(F)cccc2=C1c1[nH]c2ccccc2c1NO", "note": "[7-fluoro-3-[3-(hydroxyamino)-1H-indol-2-yl]-2-indolone]", "Ki": 2.87},
      {"smiles": "O=C1NC(=S)N/C1=C1\\C(=O)Nc2ccccc21", "note": "[(3Z)-3-(5-oxo-2-sulfanylideneimidazolidin-4-ylidene)-1H-indol-2-one]", "Ki": 0.64}
    ]}
  ]
}
